Reference: paper PMC3034214, “Inhibition of Escherichia coli glycosyltransferase MurG and Mycobacterium tuberculosis Gal transferase by uridine-linked transition state mimics” (Bioorganic & Medicinal Chemistry, 2010)

How the values were obtained:
[1] = system: Mycobacterium tuberculosis galactosyltransferase GlfT2; test: Galactosyltransferase assay ([14C]Gal incorporation into Galf(β1→6)Galf-O-C8 acceptor, membranes and cell wall fraction); format: biochemical; conditions: read-out: Percentage inhibition of Mt GTase (Mycobacterium tuberculosis galactosyl transferase)
Text: The arabinogalactan cell wall polymer of M. tuberculosis is biosynthesised through the action of a series of glycosyltransferases,[16] several of which use UDP-sugar substrates, and therefore might be inhibited by this class of compound. We have characterised a UDP-galactose-dependent galactosyltransferase activity GlfT2, which can be assayed using specific neoglycolipid acceptors in the presence of membranes and Galf(β1→6)Galf-O-C8 resulting in excellent [[14]C]Galf incorporation from UDP-[^14C]Galp, following endogenous conversion to UDP-[^14C]Galf and transferase activity (Fig. 4).[17] […] The complete chemical characterisation of the enzymatically synthesised products along with the identity of the galactosyltransferase gene product were previously reported.[17]
Liquid cultures of Mycobacterium smegmatis mc^2155 were grown at 37 °C in Luria Bertoni (LB) broth medium (Difco) supplemented with 0.05% Tween 80, biomass harvested, washed with phosphate buffered saline (PBS) and stored at −20 °C until further use. M. smegmatis cells (10 g wet weight) were washed and re-suspended in 30 ml of buffer A, containing 50 mM MOPS (adjusted to pH 8.0 with KOH), 5 mM β-mercaptoethanol and 10 mM MgCl2 at 4 °C and subjected to probe sonication (Soniprep 150, MSE Sanyo Gallenkamp, Crawley, Sussex, UK; 1 cm probe) for a total time of 10 min in 60 s pulses and 90 s cooling intervals between pulses. The sonicate centrifuged at 27,000g for 60 min at 4 °C. The resulting mycobacterial cell wall pellets were re-suspended in buffer A. Percoll (Pharmacia, Sweden) was added to yield a 60% suspension and centrifuged at 27,000g for 1 h at 4 °C. The upper, particulate diffuse cell wall enzymatically active (P60) band was collected and washed three times with buffer A and re-suspended in buffer A at a final protein concentration of 10 mg/ml. Membrane fractions were obtained by centrifugation of the 27,000g supernatant at 100,000g for 1 h at 4 °C. The supernatant was carefully removed and the membranes gently re-suspended in buffer A at a protein concentration of 20 mg/ml. Protein concentrations were determined using the BCA Protein Assay Reagent kit (Pierce Europe, Oud-Beijerland, Netherlands).
The reaction mixtures were then incubated at 37 °C for 1 h. A CHCl3/CH3OH (1:1, 533 μl) solution was then added to the incubation tubes and the entire contents centrifuged at 18,000g. The supernatant was recovered and dried under a stream of argon and re-suspended in C2H5OH/H2O (1:1, 1 ml) and loaded onto a pre-equilibrated (C2H5OH/H2O [1:1]) 1 ml Whatmann strong anion exchange (SAX) cartridge which was washed with 3 ml of ethanol. The eluate was dried and the resulting products partitioned between the two phases arising from a mixture of n-butanol (3 ml) and H20 (3 ml). The resulting organic phase was recovered following centrifugation at 3,500g and the aqueous phase was again extracted twice with 3 ml of n-butanol saturated water, the pooled extracts were back-washed twice with water saturated with n-butanol (3 ml). The n-butanol–saturated water fraction was dried and re-suspended in 200 μl of n-butanol. The total cpm of radiolabeled material extractable into the n-butanol phase was measured by scintillation counting using 10% of the labelled material and 10 ml of EcoScintA (National Diagnostics, Atlanta). The incorporation of [^14C]Gal was determined by subtracting counts present in control assays (incubation of the reaction components in the absence of the compounds).

B. subtilis = test: Antibacterial testing, growth in LB in 96-well plates (OD 595 nm); conditions: B. subtilis W23
Method: (§1) The following procedure was performed using P. putida (ATCC 33015), M. luteus (ATCC 13513), E. coli BL21 and B. subtilis W23. A single colony of the bacterial strain was picked from an LB agar plate and grown in 10 ml of sterile LB medium overnight at 37 °C. 1 ml of this culture was then used to inoculate 50 ml of sterile LB medium at 2%. Hundred microlitres of this 2% culture was pipetted into each well of a 96-well plate. Hundred microlitres of sterile water or sterile aqueous inhibitor solution (200 μg/ml or 1 mg/ml) were then pipetted into each well and the 96-well plates were incubated at 37 °C. Bacterial growth was monitored by measuring the OD at 595 nm at 3, 6 and 24 h.

Micrococcus luteus = test: as above; conditions: read-out: Growth inhibition of M. luteus
E. coli = test: as above; format: cell-based, Escherichia coli; conditions: E. coli BL21
Pseudomonas putida = test: as above; conditions: ATCC 33015
Method: as §1

E. coli MurG = E. coli MurG (Escherichia coli, UniProt P17443); test: Coupled radiochemical MraY/MurG assay ([3H]-UDPGlcNAc incorporation into lipid intermediate II); conditions: for inhibition at 1000 µM: read-out: Percentage inhibition of E. coli MurG
Sequence of E. coli MurG (P17443 whole entry): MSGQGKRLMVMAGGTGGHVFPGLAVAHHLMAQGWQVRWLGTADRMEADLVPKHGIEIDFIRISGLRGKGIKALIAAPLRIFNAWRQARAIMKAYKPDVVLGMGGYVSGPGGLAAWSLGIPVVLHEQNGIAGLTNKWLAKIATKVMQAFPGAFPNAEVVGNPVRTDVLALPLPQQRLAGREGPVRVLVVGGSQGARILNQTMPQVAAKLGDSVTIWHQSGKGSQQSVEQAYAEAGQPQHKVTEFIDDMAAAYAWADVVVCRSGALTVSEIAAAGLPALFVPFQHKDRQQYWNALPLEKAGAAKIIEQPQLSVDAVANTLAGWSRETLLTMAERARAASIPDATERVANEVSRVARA

Sequence of Mycobacterium tuberculosis galactosyltransferase GlfT2 (A0R628 whole entry): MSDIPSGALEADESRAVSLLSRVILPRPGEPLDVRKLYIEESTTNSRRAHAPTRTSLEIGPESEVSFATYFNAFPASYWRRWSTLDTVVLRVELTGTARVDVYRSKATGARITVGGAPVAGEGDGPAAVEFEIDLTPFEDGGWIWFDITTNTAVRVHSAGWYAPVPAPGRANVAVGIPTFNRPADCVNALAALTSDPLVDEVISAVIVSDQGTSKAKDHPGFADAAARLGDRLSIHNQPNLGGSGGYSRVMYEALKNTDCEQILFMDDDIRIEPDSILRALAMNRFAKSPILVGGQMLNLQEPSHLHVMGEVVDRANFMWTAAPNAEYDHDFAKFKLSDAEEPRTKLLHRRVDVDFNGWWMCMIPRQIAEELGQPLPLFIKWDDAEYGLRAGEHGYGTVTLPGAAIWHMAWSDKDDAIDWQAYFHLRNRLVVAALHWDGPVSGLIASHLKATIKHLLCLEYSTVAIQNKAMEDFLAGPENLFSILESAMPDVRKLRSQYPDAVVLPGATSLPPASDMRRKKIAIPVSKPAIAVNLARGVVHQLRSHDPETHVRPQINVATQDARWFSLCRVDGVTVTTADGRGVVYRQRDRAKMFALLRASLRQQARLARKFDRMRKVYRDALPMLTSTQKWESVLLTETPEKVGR

For `COc1ccccc1[C@H]1N[C@@](C)(C(=O)NCC(=O)NC[C@H]2O[C@@H](n3ccc(=O)[nH]c3=O)[C@H](O)[C@@H]2O)[C@H]2C(=O)N(c3ccccc3)C(=O)[C@@H]12` (mixture of isomers) [13b], the inhibition at 1000 µM [1] was 0%, the “Antibacterial activity against B. subtilis (in words)” value (B. subtilis) was “no effects” and the inhibition at 100 µg/mL (Micrococcus luteus) was 50%. The “Antibacterial activity against E. coli (in words)” value (E. coli) was “no effects”, the “Antibacterial activity against Pseudomonas putida (in words)” value (Pseudomonas putida) was “no effects” and the IC50 (E. coli MurG) was 0.4 mM. For the same compound, the inhibition at 1000 µM (E. coli MurG) was 85%.

Work on `COc1cccc([C@H]2N[C@@](C)(C(=O)NCC(=O)NC[C@H]3O[C@@H](n4ccc(=O)[nH]c4=O)[C@H](O)[C@@H]3O)[C@H]3C(=O)N(c4ccccc4)C(=O)[C@@H]23)c1OC` (mixture of isomers) [13c] yielded an inhibition at 1000 µM [1] of 0% and an inhibition at 1000 µM (E. coli MurG) of 0%.

`C[C@@]1(C(=O)NCC(=O)NC[C@H]2O[C@@H](n3ccc(=O)[nH]c3=O)[C@H](O)[C@@H]2O)N[C@H](C(O)CO)[C@@H]2C(=O)N(c3ccccc3)C(=O)[C@@H]21` (mixture of isomers) [13e] was tested, and the inhibition at 1000 µM [1] was 0% and the inhibition at 1000 µM (E. coli MurG) was 0%.

Work on `COC(=O)[C@H]1[C@@H](c2ccccc2)N[C@@](C)(C(=O)NCC(=O)NC[C@H]2O[C@@H](n3ccc(=O)[nH]c3=O)[C@H](O)[C@@H]2O)[C@@H]1C(=O)OC` (mixture of isomers) [14a] yielded an inhibition at 1000 µM (E. coli MurG) of 0%.

`COC(=O)[C@H]1[C@@H](c2ccccc2OC)N[C@@](C)(C(=O)NCC(=O)NC[C@H]2O[C@@H](n3ccc(=O)[nH]c3=O)[C@H](O)[C@@H]2O)[C@@H]1C(=O)OC` (mixture of isomers) [14b] was tested, and the inhibition at 1000 µM [1] was 0%, the IC50 (E. coli MurG) was over 5 mM and the inhibition at 1000 µM (E. coli MurG) was 32%.

`COC(=O)C1C(C(O)CO)NC2(C)C(=O)N(CC(=O)NCC3OC(n4ccc(=O)[nH]c4=O)C(O)C3O)C(=O)C12` (mixture of isomers) [15e] was tested, and the IC50 (E. coli MurG) was over 5 mM and the inhibition at 1000 µM (E. coli MurG) was 27%.

For `COC(=O)[C@H]1[C@@H](c2ccccc2OC)N[C@@](C)(C(=O)N2CCC[C@H]2C(=O)NC[C@H]2O[C@@H](n3ccc(=O)[nH]c3=O)[C@H](O)[C@@H]2O)[C@H]1C(=O)OC` (mixture of isomers) [20b], the inhibition at 1000 µM [1] was 0% and the inhibition at 1000 µM (E. coli MurG) was 0%.

`COC(=O)[C@H]1[C@@H](c2ccccc2OC)N[C@@](C)(C(=O)N2CCC[C@H]2C(=O)NC[C@H]2O[C@@H](n3ccc(=O)[nH]c3=O)[C@H](O)[C@@H]2O)[C@@H]1C(=O)OC` (mixture of isomers) [20c] gave an inhibition at 1000 µM [1] of 0% and an inhibition at 1000 µM (E. coli MurG) of 22%.

`CCN1C(=O)C2[C@@H](C1=O)[C@@H](C(O)CO)N[C@@]2(C)C(=O)N1CCC[C@H]1C(=O)NC[C@H]1O[C@@H](n2ccc(=O)[nH]c2=O)[C@H](O)[C@@H]1O` (mixture of isomers) [20d] gave an inhibition at 1000 µM [1] of 0% and an inhibition at 1000 µM (E. coli MurG) of 0%.

With `COc1ccccc1[C@H]1N[C@@](C)(COC(=O)CCC(=O)OC[C@H]2O[C@@H](n3ccc(=O)[nH]c3=O)[C@H](O)[C@@H]2O)[C@H]2C(=O)N(c3ccccc3)C(=O)[C@@H]12` (mixture of isomers) [compound 25] the inhibition at 1000 µM [1] was 0%, the “Inhibition of / binding to MurG (in words)” value (shortened to “Inhibition of / binding”) (E. coli MurG) was “weak activity” and the inhibition at 1000 µM (E. coli MurG) was 15%.

`COC(=O)C1C(c2ccc(OC)c(OC)c2)NC2(C)C(=O)N(CC(=O)NCC3OC(n4ccc(=O)[nH]c4=O)C(O)C3O)C(=O)C12` (centres unmarked) [16d] showed an inhibition at 1000 µM [1] of 0%, an IC50 (E. coli MurG) of 4 mM and an inhibition at 1000 µM (E. coli MurG) of 26%.

With `COc1ccccc1[C@@H]1[C@@H]2C(=O)N(c3ccccc3)C(=O)[C@@H]2[C@H](C(=O)N(C)CC(=O)NC[C@H]2O[C@@H](n3ccc(=O)[nH]c3=O)[C@H](O)[C@@H]2O)N1C` [compound 19] the “Inhibition of / binding” value (E. coli MurG) was “did bind to MurG” and the inhibition at 1000 µM (E. coli MurG) was 31%.

In the case of `COc1ccccc1[C@H]1N[C@@](C)(COC(=O)CC(=O)OC[C@H]2O[C@@H](n3ccc(=O)[nH]c3=O)[C@H](O)[C@@H]2O)[C@H]2C(=O)N(c3ccccc3)C(=O)[C@@H]12` [compound 24], the inhibition at 1000 µM [1] is reported as 0%, the “Inhibition of / binding” value (E. coli MurG) is reported as “weak activity” and the inhibition at 1000 µM (E. coli MurG) is reported as 17%.

For ramoplanin [reference compound], the “Inhibition of MurG” value (E. coli MurG; 20 μM ramoplanin) was over 90%.
